# According to US20250011456A1, “ANTIBODIES AGAINST CD14 AND USES THEREOF” (Villanelle Life Science Inc, priority 2023, published 2025):
# Where “and” joins values, the source holds several entries; their conditions need not be identical. Equal values may be shown once.
# Experiments:
# [1] = Mouse weight under the treatment regimens of Example 6 (PDX mice); conditions: Cisplatin 4 mg/kg i.v. (C. Ex. 2), PDX mice 1-6
# Procedure: For these experiments, eight (8) treatment groups for PDX mice were set up: control IgG group (C.Ex. 1), single cisplatin group (4 mg/kg; C.Ex. 2), single anti-CD14-IgG1 group (5 mg/kg; Ex. 1), single anti-CD14-IgG4 (5 mg/kg; Ex. 2), combined cisplatin and anti-CD14-IgG1 group (4 mg/kg+1.5 mg/kg; Ex. 3), combined cisplatin and anti-CD14-IgG4 group (4 mg/kg+1.5 mg/kg; Ex. 4), combined cisplatin and anti-CD14-IgG1 group (4 mg/kg+5 mg/kg; Ex. 5), and combined cisplatin and anti-CD14-IgG4 group (4 mg/kg+5 mg/kg; Ex. 6). […] When cisplatin was used in these experiments, the cisplatin was used at a dose of 4 mg/kg. “C.Ex.” refers to comparative examples and “Ex.” refers to examples of embodiments of the present disclosure. The control is a non-specific IgG1 having two identical heavy chains and two identical light chains. The non-specific IgG1 has no binding affinity to the antigen.
# Drug administration on the PDX mice was performed intravenously. Drug administration was performed on days 0, 4, 7, 11, 14, 18, 21, 25, and 28. Measurements of length, width, volume, and weight were performed prior to the drug administration on day 0, 4, 7, 11, 14, 18, 21, 25, and 28. The tumors were present on the skin of the mice. A ruler was used to measure the length and the width. The tumor volume was calculated by volume=½(length×width^2). The weight of the mouse was measured by placing the mouse on a scale and weighing. Tumor weight was measured by removing the tumor from the mouse and weighing on a scale.
# [2] = tested on: CD14 positive recurrent bladder cancer patient-derived xenograft (PDX); assay: Anti-CD14 IgG1/IgG4 with or without cisplatin, tumor treatment in PDX mice (tumor length, width, volume, tumor weight; Example 6); assay type: in vivo; conditions: for Tumor Length / Tumor Volume / Tumor Width: Cisplatin 4 mg/kg i.v. (C. Ex. 2), PDX mice 1-6
# Excerpt: After removing the primary tumor tissue from the patient, the tissue was temporarily placed in a complete culture medium containing RPMI1640 (Gibco Roswell Park Memorial Institute 1640 Media)+PS (penicillin and streptomycin)+10% FBS (Fetal bovine serum). The tissue was then transported to a sterile operating room within an SPF-grade (Specific Pathogen Free) animal facility. The tumor tissue was cut to an appropriate size (5 millimeters (mm) in diameter). Severely immunodeficient NSG (NOD scid gamma mouse) mice were anesthetized using an isoflurane respirator. The tumor was transplanted subcutaneously into the right rib area through surgery. When the tumor volume reached 1 cm^3, it was passaged following the same procedure, and after expanding for three generations, the tumor became stable for use in formal experiments. During the experiment, passaging and expansion were performed as needed. When the tumor volume reached 100 mm^3, the mice were divided into groups according to the experimental requirements and treated with drugs.
# The IgG4 tested is the original version of Atibuclimab.
# Drug administration on the PDX mice was performed intravenously.
smiles,measurement,setting,value
"N.N.[Cl][Pt][Cl] [Cisplatin, cisplatin, reference compound]",Mouse Weight,[1]; Day 0,20.24 g and 20.99 g and 19.91 g and 20.78 g and 20.29 g and 20.61 g
same,Mouse Weight,[1]; Day 4,20.91 g and 20.32 g and 20.42 g and 20.81 g and 20.93 g and 19.35 g
same,Mouse Weight,[1]; Day 7,19.77 g and 20.8 g and 21.42 g and 19.96 g and 20.93 g and 20.38 g
same,Mouse Weight,[1]; Day 11,21.17 g and 21.76 g and 20.58 g and 20.08 g and 21.59 g and 19.94 g
same,Mouse Weight,[1]; Day 14,21.09 g and 21.3 g and 21.38 g and 21.68 g and 20.56 g and 22.59 g
same,Mouse Weight,[1]; Day 18,21.17 g and 21.02 g and 21.25 g and 21.23 g and 21.03 g and 21.58 g
same,Mouse Weight,[1]; Day 21,22.54 g and 22.44 g and 22.47 g and 22.85 g and 22.23 g and 22.65 g
same,Mouse Weight,[1]; Day 25,25.05 g and 24.06 g and 22.26 g and 23.7 g and 25.49 g and 22.66 g
same,Mouse Weight,[1]; Day 28,24.11 g and 25.57 g and 24.32 g and 23.69 g and 24.47 g and 25.73 g
same,Tumor Length,[2]; Day 0,6.73 mm and 6.19 mm and 6.27 mm and 6.28 mm and 7.76 mm and 7.8 mm
same,Tumor Volume,[2]; Day 0,60.66 mm^3 and 92.72 mm^3 and 86.02 mm^3 and 73.84 mm^3 and 94.74 mm^3 and 109.53 mm^3
same,Tumor Width,[2]; Day 0,4.15 mm and 5.35 mm and 5.12 mm and 4.74 mm and 4.83 mm and 5.18 mm
same,Tumor Length,[2]; Day 4,6.66 mm and 6.27 mm and 5.94 mm and 5.93 mm and 6.62 mm and 5.98 mm
same,Tumor Volume,[2]; Day 4,87.83 mm^3 and 103.64 mm^3 and 106.38 mm^3 and 105.48 mm^3 and 165.90 mm^3 and 96.75 mm^3
same,Tumor Width,[2]; Day 4,5.02 mm and 5.62 mm and 5.85 mm and 5.83 mm and 6.92 mm and 5.56 mm
same,Tumor Length,[2]; Day 7,6.33 mm and 6.99 mm and 6.68 mm and 7.3 mm and 7.66 mm and 7.34 mm
same,Tumor Volume,[2]; Day 7,97.32 mm^3 and 111.46 mm^3 and 139.19 mm^3 and 144.96 mm^3 and 184.82 mm^3 and 147.18 mm^3
same,Tumor Width,[2]; Day 7,5.42 mm and 5.52 mm and 6.31 mm and 6.16 mm and 6.79 mm and 6.19 mm
same,Tumor Length,[2]; Day 11,8.7 mm and 6.68 mm and 7.84 mm and 8.41 mm and 7.57 mm and 7.94 mm
same,Tumor Width,[2]; Day 11,6.55 mm and 6.18 mm and 6.08 mm and 7.57 mm and 7.19 mm and 5.43 mm
same,Tumor Length,[2]; Day 14,7.16 mm and 8.08 mm and 7.68 mm and 8.19 mm and 9.8 mm and 9.87 mm
same,Tumor Volume,[2]; Day 14,191.56 mm^3 and 209.57 mm^3 and 206.05 mm^3 and 280.52 mm^3 and 299.36 mm^3 and 256.73 mm^3
same,Tumor Width,[2]; Day 14,7.15 mm and 7.04 mm and 7.16 mm and 8.09 mm and 7.64 mm and 7.05 mm
same,Tumor Length,[2]; Day 18,9.5 mm and 10.13 mm and 8.93 mm and 9.14 mm and 8.11 mm and 9.96 mm
same,Tumor Volume,[2]; Day 18,359.20 mm^3 and 359.95 mm^3 and 306.62 mm^3 and 367.06 mm^3 and 235.57 mm^3 and 353.91 mm^3
same,Tumor Width,[2]; Day 18,8.5 mm and 8.24 mm and 8.1 mm and 8.76 mm and 7.45 mm
same,Tumor Length,[2]; Day 21,9.64 mm and 9.79 mm and 9.77 mm and 10.69 mm and 9.27 mm and 9.57 mm
same,Tumor Volume,[2]; Day 21,461.07 mm^3 and 334.49 mm^3 and 398.65 mm^3 and 549.42 mm^3 and 378.25 mm^3 and 399.39 mm^3
same,Tumor Width,[2]; Day 21,9.56 mm and 8.08 mm and 8.83 mm and 9.91 mm and 8.93 mm
same,Tumor Length,[2]; Day 25,10.14 mm and 11.63 mm and 10.89 mm and 10.35 mm and 10.8 mm and 9.29 mm
same,Tumor Volume,[2]; Day 25,447.20 mm^3 and 648.21 mm^3 and 545.11 mm^3 and 447.56 mm^3 and 545.04 mm^3 and 354.58 mm^3
same,Tumor Width,[2]; Day 25,9.18 mm and 10.32 mm and 9.78 mm and 9.09 mm and 9.82 mm and 8.54 mm
same,Tumor Length,[2]; Day 28,10.94 mm and 11.95 mm and 11.36 mm and 9.95 mm and 11.27 mm and 11.26 mm
same,Tumor Volume,[2]; Day 28,472.03 mm^3 and 644.29 mm^3 and 617.31 mm^3 and 399.59 mm^3 and 624.50 mm^3 and 680.98 mm^3
same,Tumor Width,[2]; Day 28,9.08 mm and 10.15 mm and 10.19 mm and 8.76 mm and 10.29 mm and 10.75 mm
same,Tumor weight after 28 days,"[2]; Cisplatin (4 mg/kg), C. Ex. 2, per mouse 1-6",0.556 grams and 0.459 grams and 0.538 grams and 0.669 grams and 0.566 grams and 0.419 grams
same,tumor suppression rate,"[2]; single cisplatin 4 mg/kg (C.Ex. 2), after 28 days, compared to the control group",about 50%
